Experimental data taken from PMC7822115 (Viruses, 2020).
pEC50: −log10 of the molar value. Where two headings read alike, the source gives them in different places.

Key:
SARS-CoV-2 [1] = assay: microbe, parasite or virus in culture; assay type: cell-based; conditions: for pEC50: Severe acute respiratory syndrome coronavirus 2, Vero, 48 h, read-out: EC50 (95% CI)
[2] = in vivo; cited from earlier work
SARS-CoV-2 [3] = assay: microbe, parasite or virus in culture; assay type: cell-based
in vitro [4] = conditions: African green monkey
Vero cells = conditions: African green monkey
in vitro [5] = conditions: human
MERS-CoV = assay: microbe, parasite or virus in culture; assay type: cell-based; conditions: Middle East respiratory syndrome-related coronavirus, Vero, 48 h, read-out: EC50 (95% CI)

SMILES | SARS-CoV-2 titer after treatment (in words) (SARS-CoV-2 [1]) | pEC50 (SARS-CoV-2 [1]) | Peak human serum concentration [2] | pEC50 (SARS-CoV-2 [3]; Severe acute respiratory syndrome coronavirus 2, A549-ACE2, 48 h, read-out: EC50 (95% CI)) | CC50 (in vitro [4]) | Concentration at which cellular toxicity was observed (Vero cells) | CC50 (in vitro [5]) | pEC50 (MERS-CoV) | Cellular viability / toxicity compared to the media control (in words) (A549/ACE2 cells) | Decrease in mean SARS-CoV-2 titer compared to the control (SARS-CoV-2 [3]) | SARS-CoV-2 titer after treatment (in words) (SARS-CoV-2 [3]) | Concentration at which cellular toxicity was detected (A549/ACE2 cells; human) | SARS-CoV-2 replication after treatment (in words) (SARS-CoV-2 [1]) | SARS-CoV-2 replication after treatment (in words) (SARS-CoV-2 [3])
O=C(O)c1cn(C2CC2)c2cc(N3CCNCC3)c(F)cc2c1=O [Ciprofloxacin, ciprofloxacin] | below the level of detection | 3.61 | 7.2 µM | – | – | – | – | – | – | – | – | – | – | –
CCn1cc(C(=O)O)c(=O)c2cc(F)c(N3CCNCC3)nc21 [Enoxacin, enoxacin] | – | 3.90 | 11.2 µM | 3.64 | > 600 µM | ≥ 37.5 µM | > 600 µM | 3.46 | not different from the media control | – | – | – | – | –
C[C@H]1COc2c(N3CCN(C)CC3)c(F)cc3c(=O)c(C(=O)O)cn1c23 [Levofloxacin, levofloxacin] | – | 3.38 | – | – | > 600 µM | – | > 600 µM | – | – | 1.4 log | – | – | – | –
COc1c(N2C[C@@H]3CCCN[C@@H]3C2)c(F)cc2c(=O)c(C(=O)O)cn(C3CC3)c12 [Moxifloxacin, moxifloxacin] | below the level of detection | 3.62 | 8.6 µM | – | > 600 µM | ≥ 300 µM | > 600 µM | – | – | 2.2 log | below the level of detection | ≥ 300 µM | – | –
O=C(Nc1ccc([N+](=O)[O-])cc1Cl)c1cc(Cl)ccc1O [niclosamide] | – | – | – | – | – | – | – | – | – | – | – | – | below the level of detection | below the level of detection
